PubChem BioAssay (NCI)
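Cells were grown in 96-well plates and exposed to each compound for 48 hours at five concentrations; endpoints were interpolated linearly between bracketing concentrations, or set to the highest concentration if not reached. TGI is the concentration that stops growth completely.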

How the values were obtained:
Assay in all cases: DTP human tumour cell line panel, 48 h
LOX IMVI melanoma = test system: LOX IMVI melanoma
SK-MEL-2 melanoma = test system: SK-MEL-2 melanoma
UO-31 renal = test system: UO-31 renal
HCT-116 colon = test system: HCT-116 colon
MALME-3M melanoma = test system: MALME-3M melanoma
HT29 colon = test system: HT29 colon
COLO 205 colon = test system: COLO 205 colon
SNB-19 CNS = test system: SNB-19 CNS
SK-MEL-5 melanoma = test system: SK-MEL-5 melanoma
HCC-2998 colon = test system: HCC-2998 colon
BT-549 breast = test system: BT-549 breast
UACC-62 melanoma = test system: UACC-62 melanoma
SR leukemia = test system: SR leukemia
HOP-92 NSCLC = test system: HOP-92 NSCLC

Compound | TGI (LOX IMVI melanoma) | TGI (SK-MEL-2 melanoma) | TGI (UO-31 renal) | TGI (HCT-116 colon) | TGI (MALME-3M melanoma) | TGI (HT29 colon) | TGI (COLO 205 colon) | TGI (SNB-19 CNS) | TGI (SK-MEL-5 melanoma) | TGI (HCC-2998 colon) | TGI (BT-549 breast) | TGI (UACC-62 melanoma) | TGI (SR leukemia) | TGI (HOP-92 NSCLC)
c1ccc([P+](Cc2ccccc2C[P+](c2ccccc2)(c2ccccc2)c2ccccc2)(c2ccccc2)c2ccccc2)cc1 | > 100 µM | > 100 µM | > 100 µM | > 100 µM | > 100 µM | > 100 µM | > 100 µM | > 100 µM | > 100 µM | > 100 µM | > 100 µM | > 100 µM | – | –
O=C(CSc1nc2[nH]ncc2c(=O)[nH]1)c1ccc(Cl)cc1 | > 100 µM | > 100 µM | > 100 µM | > 100 µM | > 100 µM | > 100 µM | > 100 µM | > 100 µM | > 100 µM | > 100 µM | > 100 µM | > 100 µM | > 100 µM | –
Cc1nnc2sc(NN)nn12 | > 100 µM | > 100 µM | > 100 µM | > 100 µM | > 100 µM | > 100 µM | > 100 µM | > 100 µM | > 100 µM | – | > 100 µM | > 100 µM | – | –
Clc1cc(Cl)cc(C2ON=C(c3ccccc3)N2C23CC4CC(CC(C4)C2)C3)c1 (configuration not stated) | > 10 µM | > 10 µM | > 10 µM | > 10 µM | > 10 µM | > 10 µM | > 10 µM | > 10 µM | > 10 µM | > 10 µM | > 10 µM | > 10 µM | – | > 10 µM
N#C/C(C(=O)Nc1ccc(Cl)cc1)=C(/N)N1CCCCC1 | > 100 µM | > 100 µM | > 100 µM | > 100 µM | – | – | > 100 µM | > 100 µM | > 100 µM | > 100 µM | > 100 µM | > 100 µM | > 100 µM | > 100 µM
CCC[C@H](NS(=O)c1ccc(C)cc1)C(C(=O)OCC)=C(c1ccccc1)c1ccccc1 (some centres not stated) | 33.6 µM | 31.7 µM | 31.2 µM | 27.4 µM | 36.1 µM | 30.4 µM | 46.1 µM | > 100 µM | 44.4 µM | 15.3 µM | 48.3 µM | 31.5 µM | – | 33 µM
NC(=S)N/N=C1\NC(=O)/C(=C/c2ccc3c(c2)OCO3)S1 | 85.2 µM | 90.1 µM | > 100 µM | 85 µM | – | 82.9 µM | 71.3 µM | 53.6 µM | 37.7 µM | > 100 µM | 84.7 µM | – | – | 56.7 µM
CC(C)=NNC=N/C(C#N)=C(\N)C#N | – | > 100 µM | > 100 µM | > 100 µM | > 100 µM | > 100 µM | > 100 µM | > 100 µM | > 100 µM | 1.21 µM | > 100 µM | > 100 µM | > 100 µM | –
Cc1nc2c(=O)n(-c3ccccc3)c3ccccc3c2o1 | > 100 µM | > 100 µM | > 100 µM | > 100 µM | > 100 µM | > 100 µM | > 100 µM | > 100 µM | > 100 µM | > 100 µM | > 100 µM | > 100 µM | – | > 100 µM
CC(SC(=S)N1CCOCC1)C(=O)Nc1nnc(-c2ccccc2)o1 (configuration not stated) | > 100 µM | > 100 µM | > 100 µM | > 100 µM | > 100 µM | > 100 µM | > 100 µM | > 100 µM | > 100 µM | – | > 100 µM | – | > 100 µM | –
CC(NC(=O)c1ccccc1)NC(=O)C(C)C(=O)Nc1ccccc1 (configuration not stated) | – | > 100 µM | > 100 µM | > 100 µM | > 100 µM | > 100 µM | > 100 µM | 71.7 µM | > 100 µM | – | > 100 µM | > 100 µM | > 100 µM | > 100 µM
O=c1oc2ccccc2c(O)c1/C=N/C(=S)NCCc1ccccc1 | > 100 µM | > 85.1 µM | > 74.6 µM | > 100 µM | – | > 100 µM | > 100 µM | > 100 µM | > 100 µM | > 100 µM | > 84.7 µM | 99.4 µM | 41.7 µM | > 74.7 µM
CN(C)CCN=C1Nc2ccccc2C(=S)N2CSCC12 (configuration not stated) | > 100 µM | > 100 µM | > 100 µM | > 100 µM | > 100 µM | > 100 µM | > 100 µM | > 100 µM | > 100 µM | > 100 µM | > 100 µM | > 100 µM | > 100 µM | –
CCc1n[nH]c(=O)n1/N=C/c1ccc(C)cc1 | > 100 µM | > 100 µM | > 100 µM | > 100 µM | > 100 µM | > 100 µM | > 100 µM | > 100 µM | > 100 µM | > 100 µM | > 100 µM | > 100 µM | – | > 100 µM
CC1Oc2c(c(=O)oc3ccccc23)[C@@]1(C)CC1C[C@H](C)C(=O)O1 (some centres not stated) | > 100 µM | > 100 µM | 90.2 µM | 28.4 µM | 53.4 µM | 71.5 µM | > 100 µM | > 100 µM | > 100 µM | 56.2 µM | 71.8 µM | 42.4 µM | – | –
O=C(O)c1ccc(NC(NC(=O)C(C(F)(F)F)C(F)(F)F)(C(F)(F)F)C(F)(F)F)cc1 | > 100 µM | > 100 µM | > 100 µM | > 100 µM | – | > 100 µM | > 100 µM | > 100 µM | > 100 µM | > 100 µM | > 100 µM | – | > 100 µM | –
C=C(C)[C@H]1C=C[C@@H](OC(=O)c2cccnc2)[C@@]23CO[C@@](C)([C@H](OC(=O)c4cccnc4)[C@@]4(OC(C)=O)C[C@H](C)[C@H](OCCC)[C@@H]4[C@H]2OC(C)=O)[C@H]13 | > 15 µM | > 15 µM | > 15 µM | > 15 µM | – | – | > 15 µM | > 15 µM | > 15 µM | > 15 µM | > 15 µM | > 15 µM | > 15 µM | > 15 µM
